Assay results taken from patent US20070259329A1, “Anergy-inducing cellular composition” (BioVerde. Inc., priority 2006, published 2007).
Marks after values point to notes of the source that are not given here.

Tests used:
C57BI/6 splenocytes = test: Viability of EGCG-treated splenocytes; type: cell-based, murine
Excerpt: In a two-way MLR (FIG. 4), both stimulator and responder populations were left capable of proliferating. […] (penicillin 100 U/ml and streptomycin 100 ppm, BioWhittaker) to a final concentration of 5.0×10^6 cells/ml. […] Cell proliferation was estimated by counting with trypan-blue exclusion a small sample of the cells from each MLR well. […] Thus, the attenuation of proliferation as indicated in the MLR experiments (Example II) was not largely due to an EGCG's direct toxicity to the splenocytes. […] The experiments were performed as in Example II.

CD80 = molecular target: T1, CD80 (Mus musculus, UniProt Q00609); test: Lymphocyte marker analysis by flow cytometry, CD80 epitope; type: cell-based, murine (C57BI/6 splenocytes); details: for percent expression of cell surface molecule CD80: epitope-specific antibody, average of triplicate; for average percent suppression in epitope detection, CD80: relative to untreated control (0 ppm)
T1 construct: endogenous in cells; host or cells: murine splenocytes (C57Bl/6)
T1 sequence (Q00609 38-306): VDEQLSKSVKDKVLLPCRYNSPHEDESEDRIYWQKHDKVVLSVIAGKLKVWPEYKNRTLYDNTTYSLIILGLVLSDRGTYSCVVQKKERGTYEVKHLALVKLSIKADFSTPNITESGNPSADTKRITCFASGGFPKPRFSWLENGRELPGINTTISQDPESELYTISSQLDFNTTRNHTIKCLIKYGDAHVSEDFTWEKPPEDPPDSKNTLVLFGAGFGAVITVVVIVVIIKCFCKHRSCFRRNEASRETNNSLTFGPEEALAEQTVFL
Experimental: To evaluate the action of EGCG in rendering cells to become anergy-inducing, murine splenocytes were used as a model system. Splenocytes were collected from BALB/c (H2 K^b) and C57BI/6 (H2 K^d) female mice of 8 to 13 weeks of age in HBSS (BioWhittaker) with 1% FCS. Cells were washed with HBSS (1% FCS) and treated with the media solution which contains RPMI 1640 (Sigma-Aldrich), 10 mM HEPES (Dojindo), and various concentrations of EGCG (98% purity, Roche) described in the examples.
Flow cytometric analyses of surface epitopes for the control and EGCG-treated splenocytes were performed using a series of fluorescence-labeled monoclonal anti-mouse CD and MHC and corresponding isotype control antibodies (eBioscience: CD2, CD36, CD4, CD11a, CD25, CD 28, CD 49d and CD80; Pharmingen: TCRαβ and MHC II). Murine splenocytes (C57BI/6) were treated with red blood cell lysis buffer (eBioscience) for 5 min prior to EGCG treatments. Immediately following EGCG-treatments, the splenocytes were washed with RPMI 1640 (10% FCS) and a staining buffer (eBioscience) at 4 degree C. Each splenocyte sample was reconstituted as a 50 μl aliquot in the same staining buffer and subject to antibody labeling. After washing twice the samples with the staining buffer, a minimum of 10,000 events per sample was collected on a Becton Dickinson FACScan flow cytometer.

pancreatic β-cell = details: Han (2003); cited from earlier work
[1] = tested on: BALB/c (stimulator cells) and C57BI/6 (responder cells) splenocytes; test: Two-way mixed lymphocyte reaction (MLR); type: cell-based, murine; details: stimulator or responder cells treated with EGCG, 72 hours culture, FIG. 4
Excerpt: In a two-way MLR (FIG. 4), both stimulator and responder populations were left capable of proliferating. […] (penicillin 100 U/ml and streptomycin 100 ppm, BioWhittaker) to a final concentration of 5.0×10^6 cells/ml. […] Cell proliferation was estimated by counting with trypan-blue exclusion a small sample of the cells from each MLR well.

[2] = tested on: C57BI/6 splenocytes co-cultured with EGCG-treated BALB/c splenocytes; test: Occurrence of anergy: secondary stimulation of one-way MLR cultures; type: cell-based, murine; details: additional 48 hours, FIG. 9
Experimental: In a one-way MLR (FIG. 3), a stimulator splenocyte population (BALB/c) was treated with 30 ppm mitomycin C (MP Biomedicals) in RPMI 1640 (10% FCS) at 37 degree C. for 30 min. to arrest its proliferation before EGCG treatments. The splenocytes were then resuspended with the media solution (RPMI 1640 and 10 mM HEPES) containing 0, 100, and 200 ppm EGCG and incubated at 4-8 degree C. for 1 hour and twice washed with RPMI 1640 (10% FCS) before used for MLR experiments. In a two-way MLR (FIG. 4), both stimulator and responder populations were left capable of proliferating. Each cell population was resuspended in RPMI 1640 (10% FCS) and antibiotics: (penicillin 100 U/ml and streptomycin 100 ppm, BioWhittaker) to a final concentration of 5.0×10^6 cells/ml. The stimulator and responder cells were mixed with a 1:1 ratio (120 μl each) and incubated in triplicate in 96-well plates for 72 hours at […] and 5% CO2. Cell proliferation was estimated by counting with trypan-blue exclusion a small sample of the cells from each MLR well.

[3] = tested on: Murine splenocytes (C57BI/6); test: Survival of murine splenocytes in the media solution containing EGCG (trypan-blue exclusion); type: cell-based; details: media with 0, 200, 1000 ppm EGCG, FIGS. 1 and 2
Experimental: Murine splenocytes (C57BI/6) were suspended in the media solution containing 0, 200, and 1000 ppm EGCG with the cell concentration of 10^6/ml, and 5 ml of this cell suspension was placed in six-well incubation plates and incubated at 4 or 37 degree C. for either 1 hr or 24 hours. Surviving cells were counted by trypan-blue exclusion method and direct observation under a high magnification (800×) by a compound light microscope (Nikon Eclipse TE300). […] (FIGS. 1 and 2). Presented data are the average of three replicates for each treatment.

Substance: (−)-epigallocatechin-3-o-gallate [EGCG]
- viability of EGCG-treated splenocytes (C57BI/6 splenocytes; stimulated (C57BI/6 co-cultured with BALB/c), 24, 48, 72 hours, FIG. 6): time-dependent decrease
- viability of EGCG-treated splenocytes (C57BI/6 splenocytes; unstimulated (C57BI/6 only), 24, 48, 72 hours culture without EGCG, FIG. 5): did not significantly decreased
- percent expression of cell surface molecule CD80 (CD80; EGCg 100 ppm): 3.1%
- average percent suppression in epitope detection, CD80 (CD80; EGCg 100 ppm): (85.4)** percent
- percent expression of cell surface molecule CD80 (CD80; EGCg 200 ppm): 9.7%
- average percent suppression in epitope detection, CD80 (CD80; EGCg 200 ppm): (16.4)** percent
- cytokine-induced pancreatic β-cell damage (pancreatic β-cell): suppression
- proliferation of splenocytes [1]: significantly decreased
- T-cell proliferation after secondary stimulation ([2]; both treatments (fresh stimulator cells, exogenous IL-2 1.7 IU/ml) added at 48 hours): subtle but significant suppression
- T-cell proliferation after secondary stimulation ([2]; cell-stimulated cultures: fresh BALB/c stimulator cells added at 48 hours): suppressed the proliferation down to the level of unstimulated blank
- % survival at 4 degree C. versus 37 degree C. [3]: greater % survival
- survival of the splenocytes ([3]; incubated for 24 hours): significantly low
